Results reported in PubChem BioAssay (NCI).
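Protocol summary: plate cells (96-well), add compound at 5 concentrations, incubate 48 h, interpolate endpoints linearly. At the GI50, growth is halved. TGI: total growth inhibition.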

How the values were obtained:
Test in all cases: NCI anticancer screen, dose series, 48 h
DMS 114 small cell lung = system: DMS 114 small cell lung
DMS 273 small cell lung = system: DMS 273 small cell lung
HOP-18 NSCLC = system: HOP-18 NSCLC
KM20L2 colon = system: KM20L2 colon
M19-MEL melanoma = system: M19-MEL melanoma
SNB-78 CNS = system: SNB-78 CNS
XF 498 CNS = system: XF 498 CNS
RXF-631 renal = system: RXF-631 renal
MDA-N = system: MDA-N

Row | Compound | TGI (DMS 114 small cell lung) [µM] | TGI (DMS 273 small cell lung) [µM] | TGI (HOP-18 NSCLC) [µM] | TGI (KM20L2 colon) [µM] | TGI (M19-MEL melanoma) [µM] | TGI (SNB-78 CNS) [µM] | TGI (XF 498 CNS) [µM] | TGI (RXF-631 renal) [µM] | TGI (MDA-N) [µM] | GI50 (DMS 273 small cell lung) [µM] | GI50 (HOP-18 NSCLC) [µM] | GI50 (KM20L2 colon) [µM] | GI50 (RXF-631 renal) [µM] | GI50 (SNB-78 CNS) [µM] | GI50 (XF 498 CNS) [µM] | GI50 (DMS 114 small cell lung) [µM] | GI50 (MDA-N) [µM] | GI50 (M19-MEL melanoma) [µM]
1 | NS(=O)(=O)c1ccc(NC(=O)c2cccc3c(=O)c4ccccc4[nH]c23)cc1 | > 100 | > 100 | > 100 | > 100 | > 100 | > 100 | > 100 |  |  |  |  |  |  |  |  |  |  | 
2 | C=C(COC(C)=O)CC(/C=C(\C)CCC=C(C)C)OC(C)=O (stereo unspecified) | > 100 | > 100 |  | > 100 | > 100 | > 100 | > 100 |  |  |  |  |  |  |  |  |  |  | 
3 | CC(=O)OCCOCBr | > 100 | > 100 | > 100 | > 100 | > 100 |  | > 100 | > 100 |  |  |  |  |  |  |  |  |  | 
4 | COc1ccc(C2C(N)=NCC2c2ccccn2)cc1 (stereo unspecified) | > 100 |  | 97.9 | > 100 | > 100 | > 100 | > 100 | > 100 |  |  |  |  |  |  |  |  |  | 
5 | c1ccc2c(c1)N=C(c1cccc3ccccc13)CC(c1cccc3ccccc13)S2 (stereo unspecified) | 9.96 | > 44.7 | 13.8 | 10.4 | 20.3 | 33.4 | 22.1 |  |  |  |  |  |  |  |  |  |  | 
6 | CC/C=C\C/C=C\C1CC(=O)NCCCNCCCCN1 (stereo unspecified) | > 100 | > 100 |  | > 100 | > 100 | > 100 |  |  |  |  |  |  |  |  |  |  |  | 
7 | O=C1N[C@@H](O)[C@@H]2ON=C(c3ccccc3)[C@H]12 | > 100 | > 100 | > 100 | > 100 | > 100 |  | > 100 | > 100 |  |  |  |  |  |  |  |  |  | 
8 | COc1ccc2c(-c3cc4ccccc4o3)cc(=O)oc2c1 |  | > 100 | > 100 | > 100 | > 100 | > 100 | 45 | > 100 | > 100 |  |  |  |  |  |  |  |  | 
9 | Cc1c(-c2nc(N)nc(C3CC3)c2C)nc(N)nc1C1CC1 |  |  |  |  |  |  |  |  | > 100 |  |  |  |  |  |  |  |  | 
10 | COc1cc(/C=C/C(=N\NC(=O)c2ccccc2)c2sc(Nc3ccc(Cl)c(Cl)c3)nc2C)ccc1O | 71.5 |  | 79.3 | > 100 | > 100 | 93.2 | 91.3 | 72.5 |  |  |  |  |  |  |  |  |  | 
11 | O=c1c2ccccc2c2c3c1cccc3c1cccc3c(=O)c4ccccc4c2c31 | > 100 | > 100 | > 100 | > 100 | > 100 | > 100 |  | > 100 |  |  |  |  |  |  |  |  |  | 
12 | Clc1ccc(CNc2nc3ccccc3nc2-c2cccs2)c(Cl)c1 |  | > 100 | > 100 | > 100 | > 100 | > 100 | > 100 | > 100 |  |  |  |  |  |  |  |  |  | 
13 | COc1ccc2c(c1)[C@@]13CCN4CC5=CCO[C@H]6CC(=O)N2[C@H]1[C@H]6[C@H]5C[C@H]43 |  |  |  |  |  |  |  |  | > 100 |  |  |  |  |  |  |  |  | 
14 | CC(=O)c1c(C)n([O-])c2cc(C)c(C)cc2[n+]1=O | > 100 | > 100 | > 100 | > 100 | > 100 | > 100 | > 100 | > 100 |  |  |  |  |  |  |  |  |  | 
15 | O=C1c2ccccc2-c2cccc3ccc(Cc4ccccc4)c1c23 | > 100 | > 100 |  | > 100 | > 100 | > 100 | > 100 | > 100 |  |  |  |  |  |  |  |  |  | 
16 | NC1=NC(=O)C(CC(=O)Nc2ccc([N+](=O)[O-])cc2[N+](=O)[O-])S1 (stereo unspecified) | > 100 |  | > 100 | > 100 | > 100 | > 100 | > 100 | > 100 |  |  |  |  |  |  |  |  |  | 
17 | CN(C)C(=S)/N=c1\ss/c(=N\S(=O)(=O)c2ccccc2)n1-c1ccccc1 | 50.3 | > 100 | > 100 |  | > 100 | > 100 | 79.4 | > 100 |  |  |  |  |  |  |  |  |  | 
18 | c1cc[c]([Sn]([S]c2cccc3cccnc23)([c]2ccccc2)[c]2ccccc2)cc1 |  | 0.0344 | 0.214 | 0.109 | 0.172 | 0.0659 | 0.0524 | 0.0804 |  | 0.0173 | 0.0784 | 0.0338 | 0.0256 | 0.0203 | 0.0241 |  |  | 
19 | CC(=O)[CH-]C(C)=O.CC(=O)[CH-]C(C)=O.N=CC=N.[Sn+2] | 5.17 | 8.57 | 23.7 | 20.9 |  |  | 16.5 |  | 3.69 | 2.91 | 11.5 | 8.54 |  |  | 6.49 | 2.32 | 1.68 | 

Row | Compound | TGI (DMS 114 small cell lung) [µM] | TGI (DMS 273 small cell lung) [µM] | TGI (HOP-18 NSCLC) [µM] | TGI (KM20L2 colon) [µM] | TGI (M19-MEL melanoma) [µM] | TGI (SNB-78 CNS) [µM] | TGI (XF 498 CNS) [µM] | TGI (RXF-631 renal) [µM] | TGI (MDA-N) [µM] | GI50 (DMS 273 small cell lung) [µM] | GI50 (HOP-18 NSCLC) [µM] | GI50 (KM20L2 colon) [µM] | GI50 (RXF-631 renal) [µM] | GI50 (SNB-78 CNS) [µM] | GI50 (XF 498 CNS) [µM] | GI50 (DMS 114 small cell lung) [µM] | GI50 (MDA-N) [µM] | GI50 (M19-MEL melanoma) [µM]
20 | Cc1ccc([N+](=O)[O-])c2c(NCCCN(C)C)ccnc12 |  |  |  | 75.2 |  | > 100 |  |  | 98.4 |  |  |  |  |  |  |  |  | 
21 | COc1ccc(/C=C/C(=O)c2sc(-n3nc(-c4ccccc4)cc3-c3ccccc3)nc2C)cc1OC | > 100 | > 100 | > 100 | 63.7 | > 100 |  | > 100 | > 100 |  |  |  |  |  |  |  |  |  | 
22 | COc1ccc(C(=O)C(C(=O)CCC(=O)Nc2cccc(C(F)(F)F)c2)c2ccccc2)cc1 (stereo unspecified) | > 100 | > 100 | > 100 | > 100 | > 100 | > 100 | > 100 |  |  |  |  |  |  |  |  |  |  | 
23 | CC1CCCC(C(=O)/C(=C/c2cccc(Cl)c2)C(=O)C(=O)O)C1 (stereo unspecified) | 45.7 | > 100 | > 100 | 90 | 32.7 | > 100 |  |  |  |  |  |  |  |  |  |  |  | 
24 | Clc1cc(Cl)c2c(Cl)cc(Cl)c3c2c1N=S=N3 | > 100 | > 100 | > 100 | > 100 | > 100 | > 100 | 49 |  |  |  |  |  |  |  |  |  |  | 
25 | Cn1c(N)nc2c(nc(OCc3ccccc3)n2C2OC(CO)C(O)C2O)c1=O (stereo unspecified) |  |  |  |  |  |  |  |  | > 100 |  |  |  |  |  |  |  |  | 
26 | COc1ccc(C2=NC(C)(C)CO2)cc1 | > 100 | > 100 | > 100 | > 100 | > 100 | > 100 | > 100 |  |  |  |  |  |  |  |  |  |  | 
27 | Oc1c2c(c(O)c3ccccc13)=N[C@@H](c1ccccc1)[C@H](c1ccccc1)N=2 | > 100 | > 100 |  |  | > 100 | > 100 | > 100 |  |  |  |  |  |  |  |  |  |  | 
28 | C[C@H]1CCC/C=C/[C@@H]2C[C@H](N)C[C@H]2[C@H](O)/C=C/C(=O)O1 |  |  |  |  |  |  |  |  | > 100 |  |  |  |  |  |  |  | > 100 | 
29 | CC(C)(C)C1(O)Cc2ccccc2C(=O)O1 (stereo unspecified) | > 100 | > 100 | > 100 | > 100 | > 100 | > 100 |  | > 100 |  |  |  |  |  |  |  |  |  | 
30 | O=C(Nc1ccc(S(=O)(=O)N[C@@H](C(=O)O)c2ccccc2)cc1)c1ccc(F)cc1 |  | > 100 | > 100 | > 100 | > 100 |  | > 100 |  |  |  |  |  |  |  |  |  |  | 
31 | CC1=Nc2c(ccc3c2C(=O)c2ccccc2C3=O)NC(c2ccncc2)C1 (stereo unspecified) | > 100 | > 100 | > 100 | > 100 | > 100 | > 100 | > 100 | > 100 |  | > 100 | > 100 | > 100 |  | > 100 |  |  |  | > 100
32 | CN1CCN(C)C1c1cccc(C2N(C)CCN2C)c1 | > 100 | > 100 |  | > 100 | > 100 | > 100 |  | > 100 |  |  |  |  |  |  |  |  |  | 
33 | COc1cc(/C=C\c2ccc(O)cc2)cc(OC)c1OC |  | 2.9 | > 100 | > 100 | > 100 | 8.3 | > 100 |  |  |  |  |  |  |  |  |  |  | 
34 | Oc1c(Br)cc(CN(Cc2cc(Br)c(O)c(Br)c2)C2CCCCC2)cc1Br |  |  |  |  |  |  |  |  | > 100 |  |  |  |  |  |  |  |  | 
35 | CCOc1cccc2nc3cccc(C(=O)NCCN(C)C)c3nc12 | 3.7 | > 100 | > 38.4 | 5.48 | 2.83 | 9.3 | 3.52 | 10.5 |  |  |  |  |  |  |  |  |  | 
36 | CC(C)(C)c1nc2c(o1)C(=Nc1ccc(F)cc1)c1ccccc1C2=O | 7.81 | 10.5 | 28.8 | 32.5 | 3.08 | > 100 | 3.94 |  | 5.35 |  |  |  |  |  |  |  |  | 
37 | CC1(C)CCc2cc3c(cc2O1)OCCC3=O | > 100 |  | > 100 | > 100 | > 100 |  | > 100 | > 100 |  |  |  |  |  |  |  |  |  | 
